How the values were obtained:
C57B16 mice [1] = assay: Locomotor activity and anxiety tests (open field, elevated O-maze) in immunized mice; format: in vivo
Experimental: After the feeding study, mice were placed in individual mouse holding cages with food and water available ad libitum and were analyzed for locomotor activity and anxiety in O-maze tests performed during two consecutive days. Two hours after the O-maze test, mice were killed by decapitation in a guillotine and trunk blood was collected into EDTA-containing tubes. Plasma was separated by centrifugation at 3,500 r.p.m. ([…]) for 10 min at 4° C. and stored at −80° C. before assay.
After feeding study in the BioDAQ cages, mice were analyzed for locomotor activity using a Versamax Animal Activity Monitor (AccuScan Instruments, Inc., Columbus, Ohio). Next day after the locomotor activity test all mice were tested for their anxiety in an elevated-O-maze. The elevated-O-maze is a variation of more commonly used elevated-plus-maze pharmacologically validated for anxiety testing in rodents (Crawley, J. N. and Bailey, K. R., Methods of behavior analysis in neuroscience, 77-101 (CRC Press, 2009)). The advantage of the O-maze is that it lacks the ambiguous central square of the traditional plus-maze. The O-maze (Med Associate, Inc., St. Albans, Vt.) consisted of a circular infrared platform (outer diameter 120 cm) elevated 80 cm above the floor, featuring two open and two closed segments made of grey plastic. The closed segments were enclosed by walls extending 20 cm above the surface of the maze and covered with a black infrared Plexiglas lid. Each test started by placing the mouse into one of the two closed segments. The test lasted 5 min and was recorded using a video-camera placed above the O-maze and the EthoVision video tracking software (Noldus IT, Wageningen, The Netherlands). Measurements of distance and time spent in the open and closed segments were analyzed. Between each mouse tests, the O-maze was cleaned with a 30% alcohol.

[2] = system: polyclonal rabbit anti-α-MSH antisera
Experimental: Following 2D-PAGE, E. coli cytoplasmic proteins were transferred onto Hybond-ECL PVDF membrane (GE Healthcare) by using a dry transfer method (Trans Blot Cell, Biorad, USA) and a constant current of 0.8 mA/cm^2 of the membrane size for 2 h. After transfer, membranes were blocked with 5% (wt:v) milk (Regilait, France) in phosphate buffered saline (PBS; 10 mmol/L […], pH 8; 150 mmol/L NaCl) plus 0.05% (v:v) Tween 20.
The recombinant ClpB protein was customly produced by Delphi Genetics SA, (Gosselies, Belgium) in bacterial cultures by the ClpB cDNA synthesis and cloning into an expression vector.

C57B16 mice [3] = assay: ClpB immunization in mice: plasma ClpB-, α-MSH- and ACTH-reactive autoantibody ELISA; format: in vivo
Experimental: Two month-old male C57B16 mice (Janvier Labs L'Arbresle, France) were acclimated to the animal facility for with 12 h light-dark cycle, lights on at 7:00 a.m. and were kept in standard mouse holding cages (n=8) in each. […] During acclimatization mice were distributed between four cages to obtain the similar mean body weight per mouse per cage. After one week of acclimatization, mice from each cage were assigned to one of four study group and received following treatments: i) Group 1, ClpB immunization (n=8): ClpB protein (Delphi Genetics) 50 μg/mouse in 200 μl of 1:1 vol. of PBS with Complete Freund's Adjuvant (CFA, Sigma), intraperitoneally (I.P.); ii) Group 2, adjuvant injection controls (n=8): 200 μl of CFA in PBS (1:1 vol., I.P.); iii) Group 3, PBS injection controls (n=8): 200 μl of PBS (I.P.) and iiii) Group 4, Intact controls (n=8): received no injections, and then all mice were returned to their holding cages. Fifteen days later, mice were given a boost immunization and the following treatments: i) Group 1 (n=8), ClpB protein (Delphi Genetics) 50 μg/mouse in 200 μl of 1:1 vol. of PBS with Incomplete Freund's Adjuvant (IFA, Sigma) I.P.; ii) Group 2 (n=8): 200 ═l of IFA in PBS (1:1 vol., I.P.); iii) Group 3, (n=8): 200 ═l of PBS (I.P.) and iiii) Group 4, (n=8): received no injections.
Two hours after the O-maze test, mice were killed by decapitation in a guillotine and trunk blood was collected into EDTA-containing tubes. Plasma was separated by centrifugation at 3,500 r.p.m. (1.4 g) for 10 min at 4° C. and stored at −80° C. before assay.
Plates were washed (5 min×3) in phosphate-buffered saline (PBS) with 0.05% Tween 200, pH 7.4, and then incubated overnight at 4° C. with 100 μl of mouse or rat plasma diluted 1:200 in PBS to determine free autoAbs levels or diluted 1:200 in dissociative 3 M NaCl, 1.5 M glycine buffer, pH 8.9 to determine total autoAbs levels. The plates were washed (3×) and incubated with 100 μl of alkaline phosphatase (AP)-conjugated goat anti-rat IgG (1:2000), anti-rat IgM (1:1000), anti-mouse IgG (1:2000), or anti-mouse IgM (1:1000) all from Jackson ImmunoResearch Laboratories, Inc. (West Grove, Pa.). Following washing (3×), 100 μl of p-nitrophenyl phosphate solution (Sigma) was added as alkaline phosphatase substrate. After 40 min of incubation at room temperature, the reaction was stopped by adding 3N NaOH. The OD was determined at 405 nm using a microplate reader Metertech 960 (Metertech Inc., Taipei, Taiwan). Blank OD values resulting from the reading of plates without addition of plasma samples were subtracted from the sample OD values. Each determination was done in duplicate. The variation between duplicate values was less than 5%.

α-MSH = α-MSH (Homo sapiens, UniProt P01189); settings: IgG of ClpB immunized mice vs controls; SPR
Experimental: (§1) Extraction of plasma globulins was done by plasma acidification and separation on C-18 SEP column (Phoenix Pharmaceuticals, Burlingame, Calif.) according to the manufacturer instructions. In detail, 500 μl of mouse or rat plasma was mixed with 500 μl of buffer A (1% trifluoroacetic acid TFA in water). The column was activated in 1 ml of buffer B (60% acetonitrile in 1% TFA) by 3 min centrifugation with 700 rpm and rinsed 3 times with 3 ml of buffer A. Diluted plasma (1:1 in buffer A) was added to the column and the effluent (1 ml) was saved (frozen at −20° C.) for further purification of IgG. Total IgG were purified from the effluents of rat plasma samples using the Melon Gel Kit (Thermo Fisher Scientific, Rockford, Ill.) according to the manufacturer instructions. In brief, plasma effluents diluted 1:4 in kit's purification buffer was added on washed melon gel deposited in a column. Column was spinned 1 min at 6,000 r.p.m. and the IgG containing effluent was saved and frozen at −20° C. before lyophilization. Lyophilized IgG were reconstituted in the HBS-EP buffer (GE Healthcare, Piscataway, N.J.).
(§2) For the affinity kinetic analysis, a multi-cycle method was run with five serial dilutions of each IgG sample: 3360, 1680, 840, 420 and 210 (nmol) including a duplicate of 840 nmol and a blank sample (HBS-EP buffer only).

ClpB = ClpB (Escherichia coli, UniProt P63284); settings: plasma extracted IgG of ClpB immunized mice vs other groups; SPR
Experimental: as §1, §2

C57B16 mice [4] = assay: ClpB immunization in mice: body weight, food intake and feeding pattern (BioDAQ cages); format: in vivo
Experimental: Animal care and experimentation were in accordance with guidelines established by the National Institutes of Health, USA and complied with both French and European Community regulations (Official Journal of the European Community L 358, 18 Dec. 1986). Two month-old male C57B16 mice (Janvier Labs L'Arbresle, France) were acclimated to the animal facility for with 12 h light-dark cycle, lights on at 7:00 a.m. and were kept in standard mouse holding cages (n=8) in each. Mice were fed ad libitum with standard pelleted rodent chow (RM1 diet, SDS, UK) with drinking water always available and were manipulated daily by gentle holding and measuring body weight. During acclimatization mice were distributed between four cages to obtain the similar mean body weight per mouse per cage. After one week of acclimatization, mice from each cage were assigned to one of four study group and received following treatments: i) Group 1, ClpB immunization (n=8): ClpB protein (Delphi Genetics) 50 μg/mouse in 200 μl of 1:1 vol. of PBS with Complete Freund's Adjuvant (CFA, Sigma), intraperitoneally (I.P.); ii) Group 2, adjuvant injection controls (n=8): 200 μl of CFA in PBS (1:1 vol., I.P.); iii) Group 3, PBS injection controls (n=8): 200 μl of PBS (I.P.) and iiii) Group 4, Intact controls (n=8): received no injections, and then all mice were returned to their holding cages. Fifteen days later, mice were given a boost immunization and the following treatments: i) Group 1 (n=8), ClpB protein (Delphi Genetics) 50 μg/mouse in 200 μl of 1:1 vol. of PBS with Incomplete Freund's Adjuvant (IFA, Sigma) I.P.; ii) Group 2 (n=8): 200 ═l of IFA in PBS (1:1 vol., I.P.); iii) Group 3, (n=8): 200 ═l of PBS (I.P.) and iiii) Group 4, (n=8): received no injections.
Next day after the boost, mice were placed individually in the BioDAQ mouse cages (Research Diets, Inc., New Brunswick, N.J.) each equipped with an automatic feeding monitor. Food (SERLAB, Montataire France) and drinking water were available ad libitum and body weight was measured daily. After three days of acclimation to the BioDAQ cages, mice received the following treatments: Groups 1, 2 and 3 (each n=8) i.e. mice which have been immunized with ClpB; injected with adjuvants and with PBS, respectively, […] PBS (I.P.) at 10 a.m. The control mice (n=8) received PBS only (I.P.). Feeding data was continuously monitored and analysed using the BioDAQ data viewer 2.3.07 (Research Diets). For the meal pattern analysis, the inter-meal interval was set at 300 sec.

[5] = day 22, single injection of α-MSH 100 μg/kg body weight, I.P., non-immunized vs ClpB-immunized vs controls

ClpB, sequence (P63284 whole entry): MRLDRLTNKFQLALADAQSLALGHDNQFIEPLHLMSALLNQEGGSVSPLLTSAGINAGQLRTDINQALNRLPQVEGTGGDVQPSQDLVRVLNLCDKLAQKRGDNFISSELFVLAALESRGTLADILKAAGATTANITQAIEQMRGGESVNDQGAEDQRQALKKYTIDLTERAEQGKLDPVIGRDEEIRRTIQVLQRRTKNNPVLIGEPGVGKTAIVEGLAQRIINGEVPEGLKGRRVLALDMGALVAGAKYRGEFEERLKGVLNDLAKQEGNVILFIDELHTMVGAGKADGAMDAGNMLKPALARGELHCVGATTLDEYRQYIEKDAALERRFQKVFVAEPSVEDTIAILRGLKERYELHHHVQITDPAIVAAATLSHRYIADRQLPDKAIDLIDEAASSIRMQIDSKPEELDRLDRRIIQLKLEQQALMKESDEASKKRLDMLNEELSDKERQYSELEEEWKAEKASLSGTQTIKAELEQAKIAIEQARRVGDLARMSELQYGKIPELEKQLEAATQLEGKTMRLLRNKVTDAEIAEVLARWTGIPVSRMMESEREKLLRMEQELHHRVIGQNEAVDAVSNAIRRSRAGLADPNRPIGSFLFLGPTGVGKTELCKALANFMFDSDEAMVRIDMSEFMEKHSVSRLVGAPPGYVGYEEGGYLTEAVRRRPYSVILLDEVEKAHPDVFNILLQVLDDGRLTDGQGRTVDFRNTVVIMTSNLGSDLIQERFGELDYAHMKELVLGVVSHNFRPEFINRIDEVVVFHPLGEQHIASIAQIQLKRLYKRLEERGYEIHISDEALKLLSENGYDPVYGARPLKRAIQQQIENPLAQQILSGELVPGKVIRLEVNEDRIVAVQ

## ClpB: recombinant 857 amino acid chaperone protein ClpB of E. coli K12 (SEQ ID NO: 1), injected I.P. with Freund's adjuvant for immunization
C57B16 mice [1]; ClpB group
  parameters in the O-maze open arms: did not significantly change
C57B16 mice [1]; ClpB-immunized mice vs all other groups
  time spent in the closed arms of the O-maze: less time
C57B16 mice [1]; ClpB-immunized mice vs controls
  distance moved in the closed arms of the O-maze: shorter distance
C57B16 mice [1]; open field, among the groups
  time spent in the open vs. border areas: did not significantly differ
  total locomotor activity: did not significantly differ
[2]; ClpB digested by trypsin
  Western blot detection by anti-α-MSH antiserum after trypsin digestion: No band was detected
[2]; intact recombinant ClpB
  Western blot detection by anti-α-MSH antiserum: single 96 kDa band
C57B16 mice [3]; ClpB immunized mice
  plasma levels of α-MSH-reactive IgG: Increased plasma levels
C57B16 mice [3]; ClpB immunized mice vs other groups (adjuvant, PBS, controls)
  plasma levels of ClpB IgG: higher plasma levels
C57B16 mice [3]; among the groups
  plasma ACTH-reactive IgG: No significant differences
C57B16 mice [3]; between the groups
  plasma levels of α-MSH IgM autoAbs: did not significantly differ
α-MSH
  affinity of IgG for α-MSH: lower affinities for α-MSH
ClpB
  affinity of anti-ClpB IgG for ClpB: lower affinities
C57B16 mice [4]; BioDAQ
  meal number: did not change
C57B16 mice [4]; BioDAQ, last 10 days
  meal size: increased meal size
C57B16 mice [4]; BioDAQ, last 10 days of the experiment
  higher mean daily food intake as compared to other groups: 13%
C57B16 mice [4]; ClpB and CFA, I.P., expected inflammatory response to immunization
  body weight for few days after injections: lower body weight
C57B16 mice [4]; ClpB immunized mice, 32 days study
  higher body weight vs. controls at the end of the experiment: 5%
C57B16 mice [4]; [5]
  24 h food intake following α-MSH injection: did not differ from controls
  body weight 24 h following α-MSH injection: did not differ from controls
